In patent publication US8637268B2, “Determination of von Willebrand Factor cleavage by ADAMTS13” (Puget Sound Blood Center, priority 2010, dated 2014):
Blank lines part the entries; values can stand above or below the molecule they belong to.

How the values were obtained:
Format in all cases: biochemical
[1] = target: T1, VWF (Homo sapiens, UniProt P04275); assay: Cleavage of VWF by endogenous ADAMTS13 in citrated pooled normal plasma, multimer pattern on agarose gel
T1 construct: Cleavage of VWF by ADAMTS13 in citrated pooled normal plasma; tissue Precision BioLogic; host or cells: citrated pooled normal plasma, diluted 10-fold
Description: Cleavage of VWF by ADAMTS13 in citrated pooled normal plasma was examined by incubating 10-fold diluted plasma at 37° C. for various times. Monoclonal ADAMTS13 antibody or control antibody (final concentration: 20 μg/ml) was added to an aliquot of the diluted plasma. ADAMTS13 cleavage was stopped at indicated times with EDTA.
(§1) The VWF multimer pattern was evaluated by 1.5% agarose gel electrophoresis followed by Western blotting with a HRP-conjugated polyclonal VWF antibody (Dako, Inc., Carpinteria, Calif.) previously described (Chen et al., J Clin Invest, Submitted (2010)).

[2] = target: T2, short A2 (Met1473-Gly1674) (Homo sapiens, UniProt P04275); assay: ADAMTS13 cleavage of recombinant VWF fragment short A2 (SDS-PAGE, western blotting); details: 1.5 M urea or 1.5 mg/ml ristocetin, 37° C., 5 hr (FIG. 4)
T2 construct: short A2 (Met1473-Gly1674); made in house; host or cells: HEK293 Tet-On cells
From the text: (§2) Recombinant ADAMTS13 (Ala75-Thr1427) and VWF fragments A1A2A3 (Asp1261-Ile1878), long A2 (Asp1459-Gly1674), and short A2 (Met1473-Gly1674) were expressed as fusion proteins with the pNBioSec vector (Mize et al., Protein Expr Purif, 57(2):280-289 (2008)) in HEK293 Tet-On cells as previously described (Chen et al., Blood, 115(3):706-712 (2010)). In this expression system, recombinant proteins were secreted with dual tags: an N-terminal biotin-tag and a C-terminal protein C epitope tag. Serum-free-cell-culture medium containing the secreted recombinant proteins was concentrated 10-fold by centrifugation over an Ultra-10K filter and desalted over Sephadex G25.
(§3) Plasma VWF was purified from cryoprecipitate as described previously (Chen et al., Blood, 115(3):706-712 (2010)). Cleavage of recombinant VWF fragments by ADAMTS13 was carried out at 37° C. for 5 hours with or without modulators. The reactions were stopped by EDTA (final concentration 10 mM). Cleavage products were analyzed by electrophoresis in 4-15% gradient polyacrylamide gels (Bio-Rad Laboratories, Hercules, Calif.) after reduction. […]
(§4) Cleavage of recombinant VWF fragments (1 μg/ml) by ADAMTS13 (0.15 μg/ml) was carried out at 37° C. for 5 hours in the presence of either 1.5 M urea, or 1.5 mg/ml ristocetin. […] Cleavage products were analyzed by electrophoresis in 4-15% gradient polyacrylamide gels after reduction. […]

[3] = target: T3, A1A2A3 (Asp1261-Ile1878) (Homo sapiens, UniProt P04275); assay: ADAMTS13 cleavage of recombinant VWF fragment A1A2A3 (SDS-PAGE, western blotting); details: for ADAMTS13 cleavage of A1A2A3: 37° C., 5 hr (FIG. 2)
T3 construct: VWF fragments A1A2A3 (Asp1261-Ile1878); made in house; host or cells: HEK293 Tet-On cells
From the text: as §2
(§5) Plasma VWF was purified from cryoprecipitate as described previously (Chen et al., Blood, 115(3):706-712 (2010)). Cleavage of recombinant VWF fragments by ADAMTS13 was carried out at 37° C. for 5 hours with or without modulators. The reactions were stopped by EDTA (final concentration 10 mM). Cleavage products were analyzed by electrophoresis in 4-15% gradient polyacrylamide gels (Bio-Rad Laboratories, Hercules, Calif.) after reduction. Cleavage products were transferred onto nitrocellulose membranes, blocked with 1% albumin in Tris-buffered saline with 0.05% Tween-20, probed with HRP-conjugated streptavidin (Thermal Scientific, Rockford, Ill.), and visualized with the Immobilon Western HRP substrate (Millipore).
(§6) Cleavage of recombinant VWF fragments (1 μg/ml) by ADAMTS13 (0.15 μg/ml) was carried out at 37° C. for 5 hours in the presence of either 1.5 M urea, or 1.5 mg/ml ristocetin. The reactions were stopped by EDTA. Cleavage products were analyzed by electrophoresis in 4-15% gradient polyacrylamide gels after reduction. Cleavage products were transferred onto nitrocellulose membranes, blocked with 1% albumin in Tris-buffered saline with 0.05% Tween-20, probed with HRP-conjugated streptavidin, and visualized with the Immobilon Western HRP substrate.

[4] = target: T4, long A2 (Asp1459-Gly1674) (Homo sapiens, UniProt P04275, D1472H); assay: ADAMTS13 cleavage of recombinant VWF fragment long A2 (SDS-PAGE, western blotting); details: in the presence of ristocetin, 37° C., 5 hr (FIG. 3)
T4 construct: long A2 (Asp1459-Gly1674); made in house; host or cells: HEK293 Tet-On cells
From the text: as §2, §3, §4

[5] = target: T5, Multimeric VWF (Homo sapiens, UniProt P04275); assay: Detection of methionine oxidation in VWF by mass spectrometry (HOCl-generating system MPO plus H2O2)
T5 construct: purified, multimeric VWF from plasma; from tissue
Description: Multimeric VWF was incubated with an HOC1-generating system containing 25 nM MPO plus H2O2 at various concentrations in PBS (pH 7.4) at 37° C. for 1 hr in the presence or absence of 1.0 mg/ml ristocetin. The oxidation reaction was stopped by the addition of excess free methionine. The oxidized protein was digested with trypsin and the peptides analyzed by nano liquid chromatography-electrospray ionization-tandem mass spectrometry (nanoLC-ESI-MS/MS).

[6] = system: A1A2 fragment; assay: ADAMTS13 cleavage of recombinant VWF fragment A1A2 (SDS-PAGE, western blotting)
Description: as §5, §6

[7] = target: T6, purified multimeric plasma VWF (Homo sapiens, UniProt P04275); assay: ADAMTS13 cleavage of purified multimeric plasma VWF, multimer pattern on agarose gel; details: 0.75 and 1.0 mg/ml ristocetin, 37° C., under stasis (FIG. 1A)
T6 construct: Plasma VWF was purified from cryoprecipitate as described previously; from tissue; host or cells: plasma cryoprecipitate (VWF); HEK293 Tet-On cells (ADAMTS13)
Description: Cleavage of purified VWF (2 μg/ml) by recombinant ADAMTS13 (0.4 μg/ml) was performed at 37° C. in the absence or presence of urea or ristocetin. The reactions were stopped at the indicated times with EDTA (final concentration 10 mM).
as §1

[8] = 1.0 mg/ml ristocetin versus buffer, 25 nM MPO plus H2O2, 1 hr (FIG. 6A)

T5 sequence (P04275 764-2813 limits assumed): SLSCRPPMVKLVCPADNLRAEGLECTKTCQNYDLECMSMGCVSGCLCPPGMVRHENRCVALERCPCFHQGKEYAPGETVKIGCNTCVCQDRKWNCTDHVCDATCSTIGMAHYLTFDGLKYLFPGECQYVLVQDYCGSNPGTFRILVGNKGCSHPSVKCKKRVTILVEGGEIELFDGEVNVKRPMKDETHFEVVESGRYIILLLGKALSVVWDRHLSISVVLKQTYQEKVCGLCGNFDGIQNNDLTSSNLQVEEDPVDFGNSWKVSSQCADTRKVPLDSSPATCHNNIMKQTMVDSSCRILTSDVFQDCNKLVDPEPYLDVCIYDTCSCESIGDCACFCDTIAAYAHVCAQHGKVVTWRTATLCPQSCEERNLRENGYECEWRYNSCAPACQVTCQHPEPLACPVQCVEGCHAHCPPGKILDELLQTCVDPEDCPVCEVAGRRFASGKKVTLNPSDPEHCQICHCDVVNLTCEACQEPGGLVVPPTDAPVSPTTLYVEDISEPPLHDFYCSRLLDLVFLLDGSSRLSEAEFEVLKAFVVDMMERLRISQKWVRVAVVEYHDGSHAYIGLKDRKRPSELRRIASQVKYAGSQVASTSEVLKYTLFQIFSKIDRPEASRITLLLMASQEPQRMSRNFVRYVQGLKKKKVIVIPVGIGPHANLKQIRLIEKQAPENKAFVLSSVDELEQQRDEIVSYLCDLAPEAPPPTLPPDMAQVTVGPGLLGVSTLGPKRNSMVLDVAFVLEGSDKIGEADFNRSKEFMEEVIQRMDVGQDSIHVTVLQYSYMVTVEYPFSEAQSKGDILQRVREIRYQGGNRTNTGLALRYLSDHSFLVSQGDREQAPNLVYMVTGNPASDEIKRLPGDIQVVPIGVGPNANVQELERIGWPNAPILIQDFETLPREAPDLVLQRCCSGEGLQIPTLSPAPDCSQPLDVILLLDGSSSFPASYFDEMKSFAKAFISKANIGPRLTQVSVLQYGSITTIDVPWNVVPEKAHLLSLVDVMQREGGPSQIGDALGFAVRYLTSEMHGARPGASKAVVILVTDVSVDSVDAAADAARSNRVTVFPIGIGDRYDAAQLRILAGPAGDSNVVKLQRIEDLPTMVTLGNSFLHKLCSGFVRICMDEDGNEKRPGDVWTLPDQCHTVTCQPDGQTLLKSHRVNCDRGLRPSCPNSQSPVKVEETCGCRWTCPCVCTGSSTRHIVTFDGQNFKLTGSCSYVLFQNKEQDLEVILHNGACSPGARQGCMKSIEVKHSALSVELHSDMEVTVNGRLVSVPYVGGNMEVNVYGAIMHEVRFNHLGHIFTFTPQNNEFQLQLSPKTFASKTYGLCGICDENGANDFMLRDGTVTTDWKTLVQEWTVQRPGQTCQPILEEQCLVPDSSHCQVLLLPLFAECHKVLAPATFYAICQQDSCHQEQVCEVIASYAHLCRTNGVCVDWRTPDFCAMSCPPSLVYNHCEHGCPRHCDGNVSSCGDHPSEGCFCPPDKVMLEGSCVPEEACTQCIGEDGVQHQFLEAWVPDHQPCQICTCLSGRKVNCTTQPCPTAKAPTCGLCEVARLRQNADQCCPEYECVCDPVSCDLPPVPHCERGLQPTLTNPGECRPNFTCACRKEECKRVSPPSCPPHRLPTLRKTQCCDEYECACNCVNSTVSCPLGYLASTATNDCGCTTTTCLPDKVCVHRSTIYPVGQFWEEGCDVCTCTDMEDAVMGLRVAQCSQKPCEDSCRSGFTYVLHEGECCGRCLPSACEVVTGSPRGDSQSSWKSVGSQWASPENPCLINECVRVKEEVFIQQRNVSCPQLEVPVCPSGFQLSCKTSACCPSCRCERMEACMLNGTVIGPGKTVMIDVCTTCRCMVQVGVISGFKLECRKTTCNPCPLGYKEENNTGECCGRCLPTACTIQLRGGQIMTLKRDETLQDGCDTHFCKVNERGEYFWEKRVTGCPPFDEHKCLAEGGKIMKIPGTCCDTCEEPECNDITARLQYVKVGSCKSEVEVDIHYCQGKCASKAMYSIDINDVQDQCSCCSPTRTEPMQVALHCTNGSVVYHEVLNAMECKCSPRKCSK
T3 sequence (P04275 1261-1878, one chain of several): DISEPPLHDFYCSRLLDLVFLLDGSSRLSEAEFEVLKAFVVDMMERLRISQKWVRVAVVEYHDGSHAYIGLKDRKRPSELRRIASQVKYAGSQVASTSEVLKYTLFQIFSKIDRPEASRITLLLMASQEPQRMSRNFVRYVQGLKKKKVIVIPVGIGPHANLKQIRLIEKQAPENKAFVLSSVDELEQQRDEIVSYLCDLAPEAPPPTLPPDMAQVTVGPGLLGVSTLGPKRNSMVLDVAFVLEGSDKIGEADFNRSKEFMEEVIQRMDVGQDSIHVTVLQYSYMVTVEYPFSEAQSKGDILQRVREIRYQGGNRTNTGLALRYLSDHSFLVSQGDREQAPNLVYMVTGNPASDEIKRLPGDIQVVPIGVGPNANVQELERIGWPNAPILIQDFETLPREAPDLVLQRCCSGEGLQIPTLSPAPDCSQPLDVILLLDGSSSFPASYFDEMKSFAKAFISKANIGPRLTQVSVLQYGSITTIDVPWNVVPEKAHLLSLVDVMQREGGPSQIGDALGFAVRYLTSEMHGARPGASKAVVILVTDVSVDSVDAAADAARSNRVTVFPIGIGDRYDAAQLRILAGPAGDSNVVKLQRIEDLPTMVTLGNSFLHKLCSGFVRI
T1 sequence (P04275 764-2813 limits assumed): as the sequence (P04275 764-2813 limits assumed) above
T2 sequence (P04275 1473-1674): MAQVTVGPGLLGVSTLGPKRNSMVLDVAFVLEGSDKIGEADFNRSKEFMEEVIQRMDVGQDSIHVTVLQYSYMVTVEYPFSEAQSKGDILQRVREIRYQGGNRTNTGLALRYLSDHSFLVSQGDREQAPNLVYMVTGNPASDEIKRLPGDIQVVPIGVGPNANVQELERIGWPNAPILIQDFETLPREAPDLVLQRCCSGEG
A1A2 fragment, sequence (P04275 1261-1674 D1472H limits assumed): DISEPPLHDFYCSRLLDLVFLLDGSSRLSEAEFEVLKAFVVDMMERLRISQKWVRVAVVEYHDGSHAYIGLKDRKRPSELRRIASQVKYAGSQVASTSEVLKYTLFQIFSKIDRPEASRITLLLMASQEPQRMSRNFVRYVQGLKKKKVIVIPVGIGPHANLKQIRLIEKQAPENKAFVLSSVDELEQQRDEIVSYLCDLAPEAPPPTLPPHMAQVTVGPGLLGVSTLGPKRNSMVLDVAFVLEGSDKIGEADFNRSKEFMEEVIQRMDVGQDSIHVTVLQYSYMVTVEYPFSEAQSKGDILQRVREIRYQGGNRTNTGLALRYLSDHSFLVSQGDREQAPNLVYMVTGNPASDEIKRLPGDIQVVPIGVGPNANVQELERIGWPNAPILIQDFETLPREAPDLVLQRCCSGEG
T6 sequence (P04275 764-2813 limits assumed): as the sequence (P04275 764-2813 limits assumed) above
T4 sequence (P04275 1459-1674 D1472H): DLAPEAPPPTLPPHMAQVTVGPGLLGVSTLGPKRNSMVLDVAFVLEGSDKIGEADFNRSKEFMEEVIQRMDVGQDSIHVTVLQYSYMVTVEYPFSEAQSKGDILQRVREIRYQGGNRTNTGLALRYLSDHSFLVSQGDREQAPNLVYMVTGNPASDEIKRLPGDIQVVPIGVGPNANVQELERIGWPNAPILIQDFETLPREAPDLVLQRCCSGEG

effect on proteolysis of VWF ([1]; antibody 20 μg/ml, EDTA 10 mM per methods): inhibited
Molecule: O=C(O)CN(CCN(CC(=O)O)CC(=O)O)CC(=O)O [EDTA]

ADAMTS13 cleavage of short A2 (lacking Asp1459-His1472) [2]: cleaved it normally
Molecule: NC(N)=O [urea]

Molecule: CN[C@H](CC(C)C)C(=O)N[C@H]1C(=O)N[C@@H](CC(N)=O)C(=O)N[C@H]2C(=O)N[C@H]3C(=O)N[C@H](C(=O)N[C@H](C(=O)O)c4cc(O)cc(O)c4-c4cc3ccc4O)[C@H](O)c3ccc(c(Cl)c3)Oc3cc2cc(c3O[C@@H]2O[C@H](CO)[C@@H](O)[C@H](O)[C@H]2O[C@H]2C[C@](C)(N)[C@H](O)[C@H](C)O2)Oc2ccc(cc2Cl)[C@H]1O [vancomycin]
ADAMTS13 cleavage of A1A2A3 [3]: not mimicked

ADAMTS13 cleavage of long A2 fragment [4]: able to cleave
effect on ability of endogenous ADAMTS13 to cleave VWF in diluted plasma ([1]; 1.0 mg/ml ristocetin, 10-fold diluted plasma, 37° C., compared with 1.5 M urea (FIG. 1B)): enhanced
ADAMTS13 cleavage of A1A2A3 [3]: induced ADAMTS13 to cleave
minimum ristocetin concentration producing maximum proteolysis ([3]; A1A2A3, 37° C., 5 hr, increasing concentrations (FIG. 2B)): approximately 0.8 mg/ml
oxidation of Met1521 (methionine sulfoxide) in the A2 domain [5, 8]: more oxidized
oxidation of Met1606 (methionine sulfoxide) in the A2 domain [5, 8]: more oxidized
extent of methionine oxidation in the A1 domain ([5]; ristocetin versus buffer, 25 nM MPO and 50 μM H2O2 (FIG. 6B)): much less than in the A2 domain
ADAMTS13 cleavage of short A2 (lacking Asp1459-His1472) [2]: unable to cleave
effect on ability of recombinant ADAMTS13 to cleave purified multimeric plasma VWF [7]: accelerated
Molecule: ristocetin
efficiency of enhancing ADAMTS13 cleavage, A1A2 fragment versus long A2 domain ([6]; FIG. 3): more efficiently in the A1A2 fragment
ADAMTS13 cleavage of A1A2 fragment ([6]; in the presence of ristocetin, 37° C., 5 hr (FIG. 3)): able to cleave
